As usually defined, the EC50 is the concentration needed to bring the measured effect to its halfway point.

The test has as its system CCRF-CEM cancer cells - leukemia. Kind of test: Fluorometric Microculture Cytotoxicity Assay (FMCA), CCRF-CEM. The format is cell-based. To be noted: Homo sapiens, 72 h incubation. An excerpt: The Fluorometric Microculture Cytotoxicity Assay, FMCA (Larsson, R., et al.; Anticancer Res, 1989, 9, 1111-1119), is a three day non-clonogenic microplate-based cell viability assay used for measurement of the cytotoxic and/or cytostatic effect of compounds in vitro (Lindhagen, E. et al.; Nat. Protoc., 2008, 3, 1364-1369). FMCA represents a valuable method to measure cytotoxicity in a number of cell types, both cell lines and primary cells from patients (Larsson, R., et al.; Int. J. Cancer, 1992, 50, 177-185; Fridborg, H., et al.; Eur. J. Cancer, 1999. 35, 424-432; Dhar, S., et al.; Br. J. Cancer, 1996, 74, 888-896).
FMCA is based on the principle that fluorescein diacetate (FDA) is converted to the fluorescent probe fluorescein by esterases in the plasma membranes of living cells. For experiments, 96 or 384-well microplates are prepared with compounds and stored at −70° C. until use. Cells are then seeded into the drug-prepared plates and placed in an incubator for 72 h. On the last day of incubation, the plates are washed and a buffer containing FDA is added and incubated with the cells for 45 minutes. Finally the fluorescence per well is measured in a fluorometer and a Survival Index % (SI) for each compound-treated well is calculated with the equation: Compound-treated cells minus blank divided by control cells minus blank. A high SI-value indicates a large percentage of living cells and vice versa.
In subsequent experiments, compounds were tested, along with a number of approved cancer drugs (dasatinib, pazopanib, sorafenib, and sunitinib) as described above. Initially, the acute lymphoblastic leukemia cell line CCRF-CEM was used throughout. In the assay plates, medium was added to six empty wells (blank wells) and wells were filled with PBS and cell suspension and served as control wells. SI-values were then calculated for each compound-treated well as described above. All experiments were conducted twice and a new batch of plates was prepared for each experiment.
For dose-response experiments, 384-well plates were prepared as follows:
Compounds of the invention as well comparative kinase inhibitors sorafenib sunitinib, dasatinib, pazopanib and a reference compound disclosed in WO 2009/071535 (compound #107) were diluted with PBS to a concentration ten-times higher than the desired starting concentration. Then, a Biomek 2000 liquid handling system was employed to serially dilute the compounds in a deep-well 384-well plate. From this plate, assay plates containing 5 μl compound per well were prepared with the Biomek 2000. Certain compounds precipitated when diluted with PBS, and these compounds were therefore prepared in a 96-well plate manually as described above using culture medium RPMI 1640 instead of PBS.
The compounds were also tested at five concentrations, with five times serial dilution on the following cell types: CCRF-CEM, hTERT-RPE1 (normal retinal epithelial cells), hRPTEpiC (normal renal cells), and peripheral blood mononuclear cells (PBMC). Each experiment was performed three times, except for PBMC and hRPTEpiC, which were performed twice. SI-values were calculated, graphs were plotted using GraphPadPrism 5.0 (GraphPad Software Inc. La Jolla, Calif.) and IC50-values for each cell type and compound were determined from the curves.
In turn, `COc1ccc2[nH]cc(CCNc3ccnc(Nc4cccc5c4ccn5C)n3)c2c1` [Example 84, N^4-[2-(5-methoxy-1H-indol-3-yl)ethyl]-N^2-(1-methylindol-4-yl)pyrimidine-2,4-diamine] registered an EC50 below 100 nM. As to `Cc1cc2cc(Nc3ccnc(NCCc4c[nH]c5ccc(F)cc45)n3)ccc2[nH]1` [Example 10, N^2-[2-(5-fluoro-1H-indol-3-yl)ethyl]-N^4-(2-methyl-1H-indol-5-yl)pyrimidine-2,4-diamine], the EC50 turned out to be 280 nM. The molecule `COc1ccc2[nH]cc(CCNc3nccc(Nc4cccc5[nH]ccc45)n3)c2c1` [Example 21, N^4-(1H-indol-4-yl)-N^2-[2-(5-methoxy-1H-indol-3-yl)ethyl]pyrimidine-2,4-diamine] displayed an EC50 of 59 nM. Turning to `Cc1ccc(Nc2nccc(N(C)c3ccc4c(C)n(C)nc4c3)n2)cc1S(N)(=O)=O` [Ref. 4, pazopanib, reference compound], the EC50 stood at 25900 nM.

In turn, `COc1ccc2[nH]cc(CCNc3nccc(Nc4cccc5c4cc(C)n5C)n3)c2c1` [Example 81, N^4-(1,2-dimethylindol-4-yl)-N^2-[2-(5-methoxy-1H-indol-3-yl)ethyl]pyrimidine-2,4-diamine] had an EC50 below 100 nM. For the molecule `COc1ccc2[nH]cc(CCNc3nccc(Nc4ccc5[nH]c(C(=O)OCCO)cc5c4)n3)c2c1` [Example 17, 2-hydroxyethyl 5-{2-[2-(5-methoxy-1H-indol-3-yl)ethylamino]pyrimidin-4-ylamino}-1H-indole-2-carboxylate], a half-maximal response (EC50) required 1400 nM. Under `Cc1cc2cc(Nc3ccnc(NCCc4c[nH]c5ccc(O)cc45)n3)ccc2[nH]1` [Example 8, 3-{2-[4-(2-methyl-1H-indol-5-ylamino)pyrimidin-2-ylamino]ethyl}-1H-indol-5-ol] stands 3100 nM. As to `CCOc1ccc2[nH]cc(CCNc3nc(Nc4ccc5[nH]c(C)cc5c4)cc(C(N)=O)n3)c2c1` [Example 85, 2-[2-(5-ethoxy-1H-indol-3-yl)ethylamino]-6-[(2-methyl-1H-indol-5-yl)amino]pyrimidine-4-carboxamide], the concentration giving a half-maximal response (EC50) was below 100 nM. Molecule `c1ccc2c(CCNc3nccc(Nc4ccc5[nH]ccc5c4)n3)c[nH]c2c1` [Example 1, N^2-[2-(1H-indol-3-yl)ethyl]-N^4-(1H-indol-5-yl)pyrimidine-2,4-diamine] showed an EC50 of 4100 nM. Take `CCCOc1ccc2[nH]cc(CCNc3nccc(Nc4ccc5[nH]c(C)cc5c4)n3)c2c1` [Example 48, N^4-(2-methyl-1H-indol-5-yl)-N^2-[2-(5-propoxy-1H-indol-3-yl)ethyl]pyrimidine-2,4-diamine]: the EC50 worked out at 1300 nM. Turning to `Cc1cc2cc(Nc3ccnc(NCCc4c[nH]c5ccc(OC(C)C)cc45)n3)ccc2[nH]1` [Example 49, N^2-[2-(5-isopropoxy-1H-indol-3-yl)ethyl]-N^4-(2-methyl-1H-indol-5-yl)pyrimidine-2,4-diamine], the EC50 came to 100 nM. In turn, `COc1ccc2[nH]cc(CCNc3nccc(Nc4ccc5[nH]ccc5c4)n3)c2c1` [Example 2, N^4-(1H-indol-5-yl)-N^2-[2-(5-methoxy-1H-indol-3-yl)ethyl]pyrimidine-2,4-diamine] registered an EC50 of 140 nM. In turn, `COc1ccc2c(CCNc3nccc(Nc4ccc5[nH]c(C)cc5c4)n3)c[nH]c2c1` [Example 11, N^2-[2-(6-methoxy-1H-indol-3-yl)ethyl]-N^4-(2-methyl-1H-indol-5-yl)pyrimidine-2,4-diamine] showed a concentration giving a half-maximal response (EC50) of 150 nM. For the molecule `Cc1cc2cc(Nc3nccc(NCCc4c[nH]c5ccccc45)n3)ccc2[nH]1` [Example 22, N^4-[2-(1H-indol-3-yl)ethyl]-N^2-(2-methyl-1H-indol-5-yl)pyrimidine-2,4-diamine], the half-maximal effective concentration (EC50) was 3400 nM. For the molecule `COc1ccc2[nH]cc(CCNc3nccc(Nc4ccc5ccn(C)c5c4)n3)c2c1` [Example 75, N^2-[2-(5-methoxy-1H-indol-3-yl)ethyl]-N^4-(1-methylindol-6-yl)pyrimidine-2,4-diamine], the EC50 is below 1000 nM. On to `CCOc1ccc2[nH]cc(CCNc3nccc(Nc4ccc5[nH]c(CO)cc5c4)n3)c2c1` [Example 72, [5-({2-[2-(5-ethoxy-1H-indol-3-yl)ethylamino]pyrimidin-4-yl}amino)-1H-indol-2-yl]methanol], for which the EC50 was below 100 nM. `COc1cccc2c(CCNc3nccc(Nc4ccc5[nH]c(C)cc5c4)n3)c[nH]c12` [Example 12, N^2-[2-(7-methoxy-1H-indol-3-yl)ethyl]-N^4-(2-methyl-1H-indol-5-yl)pyrimidine-2,4-diamine] registered an EC50 of 130 nM. In the case of `COc1ccc2[nH]cc(CCNc3nc(Nc4cccc5c4ccn5C)cc(C(N)=O)n3)c2c1` [Example 87, 2-[2-(5-methoxy-1H-indol-3-yl)ethylamino]-6-[(1-methylindol-4-yl)amino]pyrimidine-4-carboxamide], the EC50 was below 100 nM.

`COc1ccc2[nH]cc(CCNc3nc(Nc4cccc5c4ccn5C)cc(N4CCN(C)CC4)n3)c2c1` [Example 89, N^2-[2-(5-methoxy-1H-indol-3-yl)ethyl]-N^4-(1-methylindol-4-yl)-6-(4-methylpiperazin-1-yl)pyrimidine-2,4-diamine] displayed an EC50 below 1000 nM. Turning to `COc1cc2[nH]cc(CCNc3nccc(Nc4ccc5[nH]c(C)cc5c4)n3)c2cc1OC` [Example 50, N^2-[2-(5,6-dimethoxy-1H-indol-3-yl)ethyl]-N^4-(2-methyl-1H-indol-5-yl)pyrimidine-2,4-diamine], the EC50 worked out at 180 nM.

As to `COc1ccc2[nH]cc(CCNc3nccc(Nc4ccc5cc(C)[nH]c5c4)n3)c2c1` [Example 73, N^2-[2-(5-methoxy-1H-indol-3-yl)ethyl]-N^4-(2-methyl-1H-indol-6-yl)pyrimidine-2,4-diamine], the EC50 is below 100 nM. Consider `COc1ccc2[nH]cc(CCNc3nccc(Nc4ccc5c(c4)ncn5C)n3)c2c1` [Example 52, N^2-[2-(5-methoxy-1H-indol-3-yl)ethyl]-N^4-(1-methyl-1H-benzo[d]imidazol-5-yl)pyrimidine-2,4-diamine], for which the EC50 was 430 nM. As for `COc1ccc2[nH]cc(CCNc3ccnc(Nc4ccc5[nH]c(C)cc5c4)n3)c2c1` [Example 23, N^4-[2-(5-methoxy-1H-indol-3-yl)ethyl]-N^2-(2-methyl-1H-indol-5-yl)pyrimidine-2,4-diamine], the figure is 59 nM; as for `COc1ccc2[nH]cc(CCNc3nccc(Nc4cccc5[nH]c(C)nc45)n3)c2c1` [Example 82, N^2-[2-(5-methoxy-1H-indol-3-yl)ethyl]-N^4-(2-methyl-1H-benzimidazol-4-yl)pyrimidine-2,4-diamine], below 1000 nM. As for `COc1ccc2[nH]cc(CCNc3nccc(N(C)c4ccc5c(c4)cc(C)n5C)n3)c2c1` [Example 62, N^4-(1,2-dimethyl-1H-indol-5-yl)-N^2-[2-(5-methoxy-1H-indol-3-yl)ethyl]-N^4-methylpyrimidine-2,4-diamine], the 50% effective concentration (EC50) fell in the range of 1000 to 10000 nM. In turn, `COc1ccc2[nH]cc(CCN(C)c3nccc(Nc4ccc5[nH]c(CO)cc5c4)n3)c2c1` [Example 59, [5-(2-{[2-(5-methoxy-1H-indol-3-yl)ethyl][methyl]amino}pyrimidin-4-ylamino)-1H-indol-2-yl]methanol] gave a concentration giving a half-maximal response (EC50) of 1000 to 10000 nM.

In turn, `COc1ccc2[nH]cc(CCNc3nccc(Nc4ccc5c(c4)nc(C)n5C)n3)c2c1` [Example 53, N^4-(1,2-dimethyl-1H-benzo[d]imidazol-5-yl)-N^2-[2-(5-methoxy-1H-indol-3-yl)ethyl]pyrimidine-2,4-diamine] registered an EC50 of 33 nM.

In turn, `COc1ccc2[nH]cc(CCNc3nc(Nc4ccc5[nH]c(C)cc5c4)cc(C(N)=O)n3)c2c1` [Example 28, 2-[2-(5-methoxy-1H-indol-3-yl)ethylamino]-6-(2-methyl-1H-indol-5-ylamino)pyrimidine-4-carboxamide] registered an EC50 of 58 nM. Under `CCOc1ccc2[nH]cc(CCNc3nccc(Nc4cccc5c4ccn5C)n3)c2c1` [Example 80, N^2-[2-(5-ethoxy-1H-indol-3-yl)ethyl]-N^4-(1-methylindol-4-yl)pyrimidine-2,4-diamine] stands below 100 nM; under `CCOc1ccc2[nH]cc(CCNc3nc(Nc4cccc5c4ccn5C)cc(C(N)=O)n3)c2c1` [Example 88, 2-[2-(5-ethoxy-1H-indol-3-yl)ethylamino]-6-[(1-methylindol-4-yl)amino]pyrimidine-4-carboxamide], below 100 nM.
